Experimental data taken from ChEMBL document CHEMBL1201862, “PubChem BioAssay data set” (2004).
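Exposure lasted 48 hours, with cells grown in 96-well plates and compounds tested at five concentrations. Abbreviation: GI50, concentration required for 50% inhibition of growth.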 Activity calls are given as the source filed them. Rule as the data show it: active = GI50 up to about 1.1 µM and inactive = higher.

Assays:
Assay in all cases: inhibition of tumour cell growth, NCI panel, 48 h
SNB-75 = system: SNB-75
OVCAR-5 = system: OVCAR-5
SK-MEL-5 = system: SK-MEL-5
UACC-257 = system: UACC-257
NCI-H226 = system: NCI-H226
HCC 2998 = system: HCC 2998
SF-539 = system: SF-539
NCI/ADR-RES = system: NCI/ADR-RES
OVCAR-4 = system: OVCAR-4
HCT-15 = system: HCT-15
OVCAR-3 = system: OVCAR-3
KM12 = system: KM12
MDA-MB-435 = system: MDA-MB-435
SK-OV-3 = system: SK-OV-3
SN12C = system: SN12C
SF-295 = system: SF-295
RXF 393 = system: RXF 393
NCI-H522 = system: NCI-H522
CCRF-CEM = system: CCRF-CEM
HL-60 = system: HL-60

SMILES	GI50 (SNB-75)	GI50 (OVCAR-5)	GI50 (SK-MEL-5)	GI50 (UACC-257)	GI50 (NCI-H226)	GI50 (HCC 2998)	GI50 (SF-539)	GI50 (NCI/ADR-RES)	GI50 (OVCAR-4)	GI50 (HCT-15) [µM]	GI50 (OVCAR-3)	GI50 (KM12)	GI50 (MDA-MB-435)	GI50 (SK-OV-3)	GI50 (SN12C)	GI50 (SF-295)	GI50 (RXF 393)	GI50 (NCI-H522)	GI50 (CCRF-CEM)	GI50 (HL-60)
NCCSCCc1ccccc1	> 100 µM (inactive)	> 100 µM (inactive)	> 100 µM (inactive)	> 100 µM (inactive)	> 100 µM (inactive)	> 100 µM (inactive)	> 100 µM (inactive)	> 100 µM (inactive)	> 100 µM (inactive)	> 100	68.2 µM (inactive)	> 100 µM (inactive)	> 100 µM (inactive)	> 100 µM (inactive)	> 100 µM (inactive)	> 100 µM (inactive)	> 100 µM (inactive)	58.6 µM (inactive)	–	–
O=C(O)c1ccccc1C1c2ccccc2Oc2ccccc21	22.6 µM (inactive)	> 100 µM (inactive)	41.4 µM (inactive)	> 100 µM (inactive)	16.4 µM (inactive)	–	–	59.7 µM (inactive)	69.7 µM (inactive)	36.9	27.9 µM (inactive)	62.2 µM (inactive)	52.4 µM (inactive)	–	46 µM (inactive)	40.2 µM (inactive)	69.5 µM (inactive)	26.8 µM (inactive)	> 100 µM (inactive)	39 µM (inactive)
CN(C)CCCNc1ncnc2[nH]cnc12	–	> 100 µM (inactive)	> 100 µM (inactive)	–	> 100 µM (inactive)	> 100 µM (inactive)	–	> 100 µM (inactive)	> 100 µM (inactive)	> 100	> 100 µM (inactive)	> 100 µM (inactive)	> 100 µM (inactive)	> 100 µM (inactive)	> 100 µM (inactive)	> 100 µM (inactive)	> 100 µM (inactive)	> 100 µM (inactive)	> 100 µM (inactive)	–
CCOP(=O)(OCC)/C(C#N)=C/c1coc2cc(C)cc(C)c2c1=O	> 100 µM (inactive)	> 100 µM (inactive)	> 100 µM (inactive)	> 100 µM (inactive)	> 100 µM (inactive)	> 100 µM (inactive)	–	> 100 µM (inactive)	> 100 µM (inactive)	–	> 100 µM (inactive)	> 100 µM (inactive)	> 100 µM (inactive)	> 100 µM (inactive)	> 100 µM (inactive)	> 100 µM (inactive)	–	> 100 µM (inactive)	> 100 µM (inactive)	> 100 µM (inactive)
C[C@H]1[C@H](C)N(Cc2ccccc2)P(=O)(C(O)/C=C/c2ccccc2)N1Cc1ccccc1 (stereo not given in full)	6.95 µM (inactive)	6.61 µM (inactive)	4.55 µM (inactive)	5.42 µM (inactive)	7.52 µM (inactive)	6.3 µM (inactive)	5.07 µM (inactive)	10.4 µM (inactive)	5.04 µM (inactive)	9.29	–	8.91 µM (inactive)	4.33 µM (inactive)	9.68 µM (inactive)	4.6 µM (inactive)	6.95 µM (inactive)	6.24 µM (inactive)	5.83 µM (inactive)	–	–
CC1OC(OC2C(OC(=O)[C@]34CCC(C)(C)C[C@H]3C3=CC[C@@H]5[C@@]6(C)CC[C@H](OC7OC(C(=O)O)C(O)C(O)C7O)C(C)(C)[C@@H]6CC[C@@]5(C)[C@]3(C)C[C@H]4O)OCC(O)C2O)C(O)C(O)C1OC1OCC(OC2OCC(O)C(O)C2O)C(O)C1O (stereo not given in full)	13.2 µM (inactive)	6.75 µM (inactive)	13.9 µM (inactive)	8.63 µM (inactive)	6.92 µM (inactive)	1.53 µM (inactive)	–	11.1 µM (inactive)	5.32 µM (inactive)	14.7	15.9 µM (inactive)	3.61 µM (inactive)	4.59 µM (inactive)	13.8 µM (inactive)	2.42 µM (inactive)	10.2 µM (inactive)	14.3 µM (inactive)	4.94 µM (inactive)	> 10 µM (inactive)	3.96 µM (inactive)
C=C[C@@]1(O)CCCC[C@@H]1CC(Sc1ccccc1)Sc1ccccc1	13.7 µM (inactive)	18.8 µM (inactive)	17.1 µM (inactive)	17.4 µM (inactive)	21.8 µM (inactive)	13 µM (inactive)	–	19.8 µM (inactive)	16.9 µM (inactive)	17.1	–	16.9 µM (inactive)	16.3 µM (inactive)	16.4 µM (inactive)	18.2 µM (inactive)	14.7 µM (inactive)	14.9 µM (inactive)	13.4 µM (inactive)	30.6 µM (inactive)	49.8 µM (inactive)
CC1CCCN(CC(O)CN2CCCc3ccccc32)C1 (stereo not given)	> 100 µM (inactive)	> 100 µM (inactive)	> 100 µM (inactive)	> 100 µM (inactive)	> 100 µM (inactive)	–	–	> 100 µM (inactive)	> 100 µM (inactive)	> 100	> 100 µM (inactive)	> 100 µM (inactive)	> 100 µM (inactive)	> 100 µM (inactive)	> 100 µM (inactive)	> 100 µM (inactive)	> 100 µM (inactive)	64.4 µM (inactive)	> 100 µM (inactive)	8.02 µM (inactive)
Cn1c(=O)c2c(nc(NCCCCl)n2CC(=O)NCCCCl)n(C)c1=O	> 100 µM (inactive)	> 100 µM (inactive)	> 100 µM (inactive)	> 100 µM (inactive)	> 100 µM (inactive)	> 100 µM (inactive)	–	> 100 µM (inactive)	> 100 µM (inactive)	> 100	> 100 µM (inactive)	> 100 µM (inactive)	> 100 µM (inactive)	> 100 µM (inactive)	> 100 µM (inactive)	> 100 µM (inactive)	> 100 µM (inactive)	> 100 µM (inactive)	> 100 µM (inactive)	> 100 µM (inactive)
CC(=O)OCC1OC(n2ncc(=O)[nH]c2=O)C(OC(C)=O)C1OC(C)=O (stereo not given)	40.3 µM (inactive)	> 100 µM (inactive)	19.3 µM (inactive)	–	15.3 µM (inactive)	26.1 µM (inactive)	30.3 µM (inactive)	61.7 µM (inactive)	> 100 µM (inactive)	3.41	65.9 µM (inactive)	11.3 µM (inactive)	32.4 µM (inactive)	61.2 µM (inactive)	34.4 µM (inactive)	5.27 µM (inactive)	> 100 µM (inactive)	19.1 µM (inactive)	0.718 µM (active)	–
CC1CCC(O)(C(C)(C(=O)O)c2ccccc2)CC1 (stereo not given)	–	> 100 µM (inactive)	> 100 µM (inactive)	> 100 µM (inactive)	91.6 µM (inactive)	–	–	> 100 µM (inactive)	> 100 µM (inactive)	> 100	> 100 µM (inactive)	> 100 µM (inactive)	> 100 µM (inactive)	–	> 100 µM (inactive)	> 100 µM (inactive)	> 100 µM (inactive)	> 100 µM (inactive)	82.8 µM (inactive)	> 100 µM (inactive)
CCOC(=O)c1c(N2CCCC2)[nH]c(=O)c(C(c2ccc(N(C)C)cc2)c2c(O)c(C(=O)OCC)c(N3CCCC3)[nH]c2=O)c1O	48.5 µM (inactive)	> 100 µM (inactive)	> 100 µM (inactive)	> 100 µM (inactive)	> 100 µM (inactive)	> 100 µM (inactive)	> 100 µM (inactive)	> 100 µM (inactive)	> 100 µM (inactive)	> 100	> 100 µM (inactive)	> 100 µM (inactive)	> 100 µM (inactive)	> 100 µM (inactive)	> 100 µM (inactive)	> 100 µM (inactive)	> 100 µM (inactive)	> 100 µM (inactive)	> 100 µM (inactive)	–
COc1ccc(C2(O)C(S(=O)(=O)c3ccc(C)cc3)=Cc3ccc(OC)cc32)cc1 (stereo not given)	25.9 µM (inactive)	> 100 µM (inactive)	> 100 µM (inactive)	> 100 µM (inactive)	> 100 µM (inactive)	> 100 µM (inactive)	43.5 µM (inactive)	> 100 µM (inactive)	–	> 100	–	> 100 µM (inactive)	> 100 µM (inactive)	35.6 µM (inactive)	73.8 µM (inactive)	28.2 µM (inactive)	–	39.9 µM (inactive)	> 100 µM (inactive)	22 µM (inactive)
OCC1C(OCc2ccccc2)C(OCc2ccccc2)C(OCc2ccccc2)CN1Cc1ccccc1 (stereo not given)	13 µM (inactive)	37.5 µM (inactive)	–	19.6 µM (inactive)	33.8 µM (inactive)	28.2 µM (inactive)	73.5 µM (inactive)	26.7 µM (inactive)	46.7 µM (inactive)	30.5	47.5 µM (inactive)	16.8 µM (inactive)	24.8 µM (inactive)	> 100 µM (inactive)	14.5 µM (inactive)	30.3 µM (inactive)	17.4 µM (inactive)	27.4 µM (inactive)	28.8 µM (inactive)	–
C=CCOn1c(C=C)nc2c(C)cccc21	3.59 µM (inactive)	7.03 µM (inactive)	3.89 µM (inactive)	2.99 µM (inactive)	5.47 µM (inactive)	6.08 µM (inactive)	–	3.12 µM (inactive)	8.89 µM (inactive)	3.07	2.48 µM (inactive)	3.41 µM (inactive)	1.63 µM (inactive)	2.4 µM (inactive)	3.63 µM (inactive)	5.58 µM (inactive)	–	2.29 µM (inactive)	1.33 µM (inactive)	1.98 µM (inactive)
